In ChEMBL document CHEMBL1131625, “Neurosteroid analogues. 6. The synthesis and GABAA receptor pharmacology of enantiomers of dehydroepiandrosterone sulfate, pregnenolone sulfate, and (3alpha,5beta)-3-hydroxypregnan-20-one sulfate” (J Med Chem, 1998) one finds Ki and IC50 data, which are given here for six compounds.

SMILES strings stand for the structures.

For experiment [1], the species on record is Rattus norvegicus. The experiment in a line: Inhibition of GABA-mediated currents by compound. The format is functional.
Experiment [2] concerns the target GABA-A receptor; anion channel. The experiment in a line: Inhibitory activity against Gamma-aminobutyric acid A (GABA-A) receptor of rat hippocampal neurons. It is filed as tissue-based, Hippocampus.
Experiment [3] is filed under the species Rattus norvegicus. The experiment in a line: The Non-competitive block of GABA-mediated currents in cultured neurons from rat ventral mesencephalon. The format is functional.

Take `CC(=O)[C@@H]1CC[C@H]2[C@@H]3CC[C@H]4C[C@@H](OS(=O)(=O)O)CC[C@@]4(C)[C@H]3CC[C@@]12C`: the Ki in experiment [1] was determined as 47 µM.
Regarding `CC(=O)[C@@H]1CC[C@@H]2[C@H]3CC=C4C[C@H](OS(=O)(=O)O)CC[C@@]4(C)[C@@H]3CC[C@]21C`, the IC50 in experiment [2] was determined as 76 µM.
`CC(=O)[C@H]1CC[C@H]2[C@@H]3CC[C@@H]4C[C@H](OS(=O)(=O)O)CC[C@]4(C)[C@H]3CC[C@]12C`: affinity in experiment [1] was put at a Ki of 39 µM. Further, in experiment [2], half-maximal inhibition (IC50) required 39 µM.
Take `CC(=O)[C@H]1CC[C@H]2[C@@H]3CC=C4C[C@@H](OS(=O)(=O)O)CC[C@]4(C)[C@H]3CC[C@]12C`: inhibition in experiment [2] was half-maximal at 82 µM (IC50).
For the compound `C[C@@]12CC[C@@H]3[C@H](CC=C4C[C@H](OS(=O)(=O)O)CC[C@]43C)[C@H]1CCC2=O`, the inhibition constant (Ki) in experiment [3] came to 81 µM. For the same compound, the IC50 in experiment [2] amounted to 80 µM.
With `C[C@]12CC[C@H](OS(=O)(=O)O)CC1=CC[C@@H]1[C@@H]2CC[C@]2(C)C(=O)CC[C@@H]12`, the inhibition constant (Ki) in experiment [3] amounted to 13 µM. Besides, the IC50 in experiment [2] was determined as 11 µM.
